Columns and labels:
Assay in all cases: CTG-3D luminescence at 96 h relative to day-0 seeding control (ratio to day 0); higher = more growth / less cytotoxicity; PDxO 3D drug screen, 96 h, CTG-3D normalised to day-0 seeding control.
MDA-MB-231 = test system: MDA-MB-231
HCI-005.E2 = test system: HCI-005.E2 (organoid from a breast cancer xenograft with a HER2-positive history)
HCI-016 = test system: HCI-016 (organoid from a triple-negative breast cancer xenograft)
HCI-008 = test system: HCI-008 (organoid from a HER2-enriched breast cancer xenograft)
HCI-017.E2 = test system: HCI-017.E2 (organoid from an ER-positive breast cancer xenograft)
HCI-025 = test system: HCI-025 (organoid from a breast cancer xenograft)
HCI-019 = test system: HCI-019 (organoid from a triple-negative breast cancer xenograft)

COc1cc2c(Oc3ccc4[nH]c(C)cc4c3F)ncnc2cc1OCCCN1CCCC1 [cediranib]
CTG-3D luminescence at 96 h
Details	12.5 pM	0.00025 µM	0.005 µM	0.1 µM	1 µM	10 µM	100 µM	625 fM
HCI-005.E2	1.5	1.54	1.77	1.68	1.11	0.322	0.0129	1.54
HCI-017.E2	1.74	2.27	2.12	2.09	1.751	1.81	0.00813	2.35
MDA-MB-231	4.34	4.3	4.48	4.29	4.44	1.46	0.0107	4.45

CTG-3D luminescence at 96 h
Details	12.5 pM	0.00025 µM	0.005 µM	0.1 µM	1 µM	10 µM	100 µM	625 fM
HCI-008, days in culture: 228	1.83	1.99	1.53	2.02	1.69	-0.102	-0.136	1.51
HCI-008, days in culture: 244	1.25	1.7	1.65	2.04	1.62	0.0639	-0.000797	1.95
HCI-016, days in culture: 153	3.21	2.24	2.18	2.54	3.03	0.161	-0.00356	2.44
HCI-016, days in culture: 172	2.32	2.05	1.6	1.62	1.55	0.397	-0.000672	1.64
HCI-016, days in culture: 190	1.57	1.2	1.45	1.43	1.44	0.423	5.93e-05	1.13
HCI-016, days in culture: 199	1.23	1.38	1.17	1.65	1.57	0.0517	-0.0032	1.73
HCI-017.E2, days in culture: 85	2.93	3.39	2.44	2.78	2.18	2.05	0.00763	2.35
HCI-019, days in culture: 110	1.88	1.82	1.98	2.39	1.07	0.1	-0.00352	2.01
HCI-019, days in culture: 131	2.89	3.08	3.29	3.43	1.59	0.0352	-0.00454	3.39
HCI-019, days in culture: 152	2.41	3.23	2.62	1.68	0.851	0.22	0.000827	2.04
HCI-025, days in culture: 172	2.66	1.84	3.42	1.99	2.79	0.0165	-0.00438	2.12
HCI-025, days in culture: 209	1.77	1.18	1.76	1.47	2.18	0.022	-0.00409	1.31
HCI-025, days in culture: 218	1.52	1.84	2.1	1.73	1.5	0.0433	-0.00599	1.86

Source: the supplement of paper PMC8882468
